From paper PMC6934184, “Selective DNA-PKcs inhibition extends the therapeutic index of localized radiotherapy and chemotherapy” (The Journal of Clinical Investigation, 2019)

Target: T1, MARK1 (MARK) (Homo sapiens, UniProt Q9P0L2)
T1 construct: purchased Thermo Fisher Scientific (Life Technologies) SelectScreen
Assay: SelectScreen Z'LYTE
Assay type: biochemical
Outline: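 SelectScreen broad panel; activity (Z'LYTE, Adapta) plus binding formats. ATP: Km app for CSF1R Z'LYTE; 10 for CAMK1 Adapta. Readout = % per kinase.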

T1 sequence (Q9P0L2 whole entry): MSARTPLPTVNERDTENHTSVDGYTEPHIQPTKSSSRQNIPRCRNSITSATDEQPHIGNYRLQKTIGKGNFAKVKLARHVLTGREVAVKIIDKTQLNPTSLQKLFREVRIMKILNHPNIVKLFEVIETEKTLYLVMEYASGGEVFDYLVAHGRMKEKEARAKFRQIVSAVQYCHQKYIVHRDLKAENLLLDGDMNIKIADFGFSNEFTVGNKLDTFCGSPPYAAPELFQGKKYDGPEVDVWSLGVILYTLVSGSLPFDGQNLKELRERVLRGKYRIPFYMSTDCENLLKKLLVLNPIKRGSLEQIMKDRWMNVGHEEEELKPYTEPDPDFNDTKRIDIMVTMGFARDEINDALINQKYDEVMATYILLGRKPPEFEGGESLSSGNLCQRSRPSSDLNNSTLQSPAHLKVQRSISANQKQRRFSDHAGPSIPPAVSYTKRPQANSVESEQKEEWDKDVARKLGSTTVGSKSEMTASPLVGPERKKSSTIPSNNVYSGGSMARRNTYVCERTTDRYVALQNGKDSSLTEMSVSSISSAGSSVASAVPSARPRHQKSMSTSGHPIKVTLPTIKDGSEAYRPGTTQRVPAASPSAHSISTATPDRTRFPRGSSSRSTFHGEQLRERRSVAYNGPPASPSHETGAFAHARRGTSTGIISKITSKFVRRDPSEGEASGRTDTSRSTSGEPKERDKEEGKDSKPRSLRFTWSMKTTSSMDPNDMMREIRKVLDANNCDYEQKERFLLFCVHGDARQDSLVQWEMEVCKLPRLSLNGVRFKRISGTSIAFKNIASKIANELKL

## CN(C(=O)CN1CCOCC1)c1ccc2sc3c(-c4cccc5c(=O)cc(N6CC7CCC(C6)O7)oc45)cccc3c2c1 [NU5455]
  inhibition at 1 µM: 5.1%
